System: MAPK (ERK)
Assay: ERK phosphorylation (Phospho-ERK/total ERK) in normal human keratinocytes HEKa, Western blot
Type: cell-based
Conditions: 2 hours treatment; for effect on ERK activation: concentration not given (0.3 μM and 1 μM tested); for ERK activation (increase in the relative amount of Phosphorylated ERK): 0.3 μM (FIGS. 1A and 1C)
Protocol: Normal human keratinocytes HEKa (purchased from Gibco Rhenium) were seeded in 10 cm dishes (300,000 cells/dish) and incubated overnight at 37° C., 5% CO2. The medium was then replaced with a starvation medium for 2 hours and the cells were subsequently treated for 2 additional hours with the test compounds (i.e BRAF inhibitors). […]
Post incubation, the cells were lysed with RIPA buffer and the protein extracts were analyzed by Western blot to detect Phospho-ERK and total ERK using suitable antibodies. Untreated cells and 0.1% DMSO treated cells were used as negative control and Human Keratinocyte Growth Supplement (HKGS) (Gibco) was used as a positive control.
Western Blot: 7.5 μg of total extract was loaded on 10% or 12% acrylamide gel. Following transfer, the membranes were blocked with TBST/5% skimmed milk and then incubated with Mouse anti Phospho-ERK (1:1000 in TBST 5% BSA, ON at 4° C.) and goat anti Mouse HRP (1:10,000 in TBST 5% BSA, 1-hour RT). The membranes were exposed using SuperSignal West Pico Chemiluminescent Substrate.
HRP was subsequently inactivated by incubating the membranes for 1 hour with 0.5% sodium azide. Following washes and ECL exposure in order to ensure absence of signal, the membranes were re-blocked for 15 min with TBST/5% skimmed milk and then incubated with Rabbit anti total ERK2 (1:500 in TBST 5% BSA, ON at 4° C.), goat anti Rabbit HRP (1:5,000 in TBST 5% BSA, 1-hour RT) and finally exposed using the SuperSignal West Pico Chemiluminescent Substrate. The films were scanned and the signal was quantified using ImageJ software. The results were calculated as Phospho-ERK/total ERK.
In this experiment, the effect of the BRAF inhibitor compounds disclosed herein on MAPK (ERK) phosphorylation in human keratinocytes (HEKa) was investigated. Phosphorylation of ERK served as an indicator for ERK activation.
In order to determine the effect of various BRAF inhibitors on ERK activation in relevant keratinocytes cells, the level of ERK phosphorylation was measured in normal human keratinocytes in response to treatment with the BRAF inhibitors.

Row | SMILES | effect on ERK activation | ERK activation (increase in the relative amount of Phosphorylated ERK)
1 | CNc1ncc2ccc(-c3c(C)ccc4c(Nc5cc(O)cc(O)c5)nccc34)cc2n1 [LUT001] | moderate effect on ERK activation | –
2 | CNc1cc(-c2cccnc2Nc2c(C)ccc3c(Nc4ccc(I)cc4F)nccc23)ncn1 [LUT156] | – | significant ERK activation
3 | C#Cc1cccc(Nc2nccc3c(-c4ccc5nc(NC)ncc5c4)c(C)ccc23)c1 [LUT192] | moderate effect on ERK activation | –
4 | CNc1ncc2cc(-c3c(C)ccc4c(Nc5ccc(F)c(Cl)c5)nccc34)ccc2n1 [LUT195] | moderate effect on ERK activation | –
5 | CNc1ncc2cc(-c3c(C)ccc4c(Nc5ccc(Cl)c(C(F)(F)F)c5)nccc34)ccc2n1 [LUT197] | – | significant ERK activation

Reference: patent US11458139B2, “Use of BRAF inhibitors for treating cutaneous reactions caused by treatment with a MEK inhibitor” (MEMORIAL SLOAN KETTERING CANCER CENTER, priority 2017, dated 2022)
